# In patent US20100092459A1, “Protein Complex and Uses” (IMPERIAL INNOVATIONS LIMITED, priority 2006, published 2010):
# Key:
# [1] = tested on: FGF-2-mediated ERK phosphorylation in H510 cells; test: FGF-2-induced ERK phosphorylation in H510 cells, Western blot for biphospho-ERK; type: cell-based; conditions: for inhibition of FGF-2-mediated ERK phosphorylation: dose range of inhibitor 1 h, then FGF-2 0.1 ng/ml 5 min
# Method: (B) Representative blots from (A) were quantified by optical densitometry normalised for actin. (C) H69 cells transfected with empty (V) or a wt-PKCε-GFP expressing vector (a) were analysed for phospho-ERK, XIAP and Bcl-XL levels. (D) Baseline level cell death in V-H69 and ε-H69 cells growing in 10% FCS was determined by flow cytometry using Annexin V staining. (E) ε-H69 and V-H69 cells in SFM were treated with or without 0.1 μM etoposide (VP-16) and cell numbers determined 96 h later. Conditions were performed in quadruplicates and the average cell number±SEM represented as fold over untreated. (F) H510 cells in SFM were treated with or without 40 μM ε-TITAT, ΕTI-TITAT or TITAT for 4 h prior to stimulation for 5 min with or without FGF-2 (0.1 ng/ml). Cell lysates were Western-blotted for biphospho-ERK. […] (G) H510 cells transfected with PKCε or scrambled (sc) siRNA were stimulated with or without FGF-2. Lysates were analysed for PKCε levels and Erk phosphorylation. (A, C, F and G) Lamin B and actin immunodetection were used as loading controls.
# (A) H510 cells were treated with or without a dose range of GF109203X (GF), Gö6976 (Go), Hispidin (His), BAPTA (BA) or Rottlerin (Rot) for 1 h prior to stimulation for 5 min in the presence or absence of either FGF-2 (0.1 ng/ml) or PDBu (400 nM). Cell lysates were analysed by SDS-PAGE/Western-blotting for biphospho-ERK. Lamin immunodetection was used as loading control. (B-top panel) Equal protein amounts from SCLC cell lines were compared for their PKC expression pattern. (B-bottom panel) SCLC cells in SFM were stimulated with and without FGF-2 for 5 min and cell lysates analysed by SDS-PAGE/WB for Erk phosphorylation. PKCε and PKCα levels (ODs from left panel) were compared to the ability to phosphorylate Erk in these SCLC cell lines. Results shown are representative of at least three independent experiments.
# The PKCε translocation inhibitor ([…]) and PKCα translocation inhibitor ([…]) (Souroujon and Mochly-Rosen, 1998; Yedovitzky et al., 1997) were made cell-permeable by linkage to the HIV-derived TITAT sequence ([…]). H510 cells in RPMI were incubated for 4 h with 40 μM of either translocation inhibitor peptides or TITAT prior to further treatments. The activity of these inhibitors on ERK phosphorylation was assessed by Western Blotting.
# [2] = tested on: Bcl-XL and XIAP; test: Bcl-XL and XIAP expression in HEK293Tet cells, Western blot; type: cell-based
# Method: (§1) HEK 293-Tet clones transfected with an inducible vector for kinase active S6K1 (1KA), S6K2 (2KA) or empty vector were treated with tetracycline for 6 h prior to (A) Western-blotting (WB) as indicated or (B) S6K1 or 2 kinase assay using an S6 peptide as substrate. (C) V-, 1KA- and 2KA-293 cells were incubated in the absence of tetracycline with (white bars) or without (hatched bars) serum for 18 h or with tetracycline in the absence of serum (black bars) and the proportion of apoptotic cells determined using annexin V staining. (D) Cell lysates from 2KA and 1KA-293 cells treated with or without tetracycline, FGF-2 and PD098059 were analysed for Bcl-XL expression and S6 phosphorylation. (E) HEK 293 cells incubated with or without FGF-2 (4h) prior to serum deprivation (18 h) were analysed by annexin V staining. (A, D, F) Actin and lamin B immunodetections were used as a loading control. (B, C, E) Results represent the average of triplicates±SEM. (A-E) Results are representative of at least three independent experiments.
# (A and B) HEK293 expressing tetracycline-inducible kinase-active S6K1 (1KA) or 2 (2KA) were treated with or without tetracycline for 6 h (B) or the time indicated (A). (A) Cells were grown in the absence of FCS and a cell death time-course performed. Cell death was assessed microscopically by determining Trypan blue positivity. Results shown are averages±SEM of triplicates. (C) HEK293 cells were treated for 1 h with or without 25 μM PD098059 prior to stimulation with FGF-2 for 4 h. (B and C) Cell lysates were analysed by SDS-PAGE/WB for the levels of Bcl-XL and XIAP. Actin was used as a loading control. Results shown are representative of at least three independent experiments.
# [3] = tested on: HEK293Tet cells; test: Survival of HEK293Tet cells after serum deprivation (annexin V); type: cell-based; conditions: FGF-2 4 h before serum deprivation 18 h
# Method: as §1
# SCLC cells (5×10^4 cells/ml SFM) were pre-treated with or without 0.1 ng/ml FGF-2 for 4 h prior to treatment with 0.1 μM etoposide and incubated at 37° C. for 96 h. […] The proportion of cell death was either determined by trypan blue exclusion or by Annexin V staining and flow cytometry as previously described (Pardo et al., 2002).
# [4] = tested on: S6K2; test: S6K2 immune complex kinase assay (S6-peptide substrate), ε-H69 cells; type: cell-based; conditions: ε-H69 cells (PKCε over-expressing), 40 μM peptide 4 h
# Method: (§2) Cell lysates were subjected to immunoprecipitation with a PKCε antibody prior to Western blotting (WB) for the molecules indicated. (A-lower panel) Total cell lysate was Western-blotted as indicated. (B and E) […] was immunoprecipitated from V-H69 and ε-H69 (B) or […] cells (E) following 4 h treatment with or without ε[…] and TITAT. Immunoprecipitates were subjected to in-vitro kinase assays with S6-peptide as a substrate and the results shown are average cpm±SEM from triplicates of a representative experiment. (C) The phosphorylation of the endogenous V-H69 and -H69 cells in SFM were washed three times in RPMI 1640, and 2×10^6 cell aliquots were incubated in this medium for 30 min at 37° C. Cells were treated in the presence or absence of 40 μM ([…] or TITAT peptide for 4 h as indicated, prior to performing an immune complex kinase assay for S6K1 or […] as described (Pardo et al., 2001). In separate experiments, HEK293Tet cells expressing tetracycline-inducible kinase active cytoplasmic forms of S6K1 or […] were incubated with or without tetracycline prior to lysis and immune complex kinase assay.
# [5] = tested on: S6K2; test: S6K2 immune complex kinase assay, FGF-2-stimulated H510 cells; type: cell-based; conditions: peptide 4 h
# Method: as §2
# [6] = target: S6K2 (human) (UniProt Q9UBS0)
# [7] = tested on: S6 protein; test: Phosphorylation of endogenous S6 protein in ε-H69 cells (phospho-S6 antibody); type: cell-based; conditions: ε-H69 cells in SFM
# Method: S6 protein from V-H69 and ε-H69 cells in SFM treated with or without εTI-TITAT was determined using a phospho-S6 antibody. (D and F) PKCε KO MEFs re-expressing (KO+ε) or not (KO) […] were (D) grown in 10% FCS and analysed for phospho-S6 levels or (F) stimulated with or without FGF-2 and FCS prior to S6K2 immunoprecipitation and Western blotted as indicated. (C and D) Lamin B and actin immunodetection were used as a loading control. (A-F) Results shown are representative of at least 3 independent experiments.
# [8] = 40 μM peptide 4 h, FGF-2 0.1 ng/ml 5 min
compound,measurement,setting,value
O=C(O)CN(CC(=O)O)c1ccccc1OCCOc1ccccc1N(CC(=O)O)CC(=O)O [BAPTA],inhibition of FGF-2-mediated ERK phosphorylation,[1],Only GF109203X and Rottlerin inhibited
CN(C)CCCn1cc(C2=C(c3c[nH]c4ccccc34)C(=O)NC2=O)c2ccccc21 [GF109203X],inhibition of FGF-2-mediated ERK phosphorylation,[1],inhibited
Cn1c2ccccc2c2c3c(c4c5ccccc5n(CCC#N)c4c21)CNC3=O [Gö6976],inhibition of FGF-2-mediated ERK phosphorylation,[1],Only GF109203X and Rottlerin inhibited
O=c1cc(O)cc(/C=C/c2ccc(O)c(O)c2)o1 [Hispidin],inhibition of FGF-2-mediated ERK phosphorylation,[1],Only GF109203X and Rottlerin inhibited
COc1cccc(-c2cc(=O)c3ccccc3o2)c1N [PD098059],block of FGF-2-induced Bcl-XL and XIAP expression,"[2]; HEK293 cells, 25 μM PD098059 1 h before FGF-2 4 h",could be blocked
same,suppression of increased Bcl-XL and XIAP expression,"[2]; KA-S6K2 HEK293Tet cells, tetracycline induced",could not be suppressed
CC(=O)c1c(O)c(C)c(O)c(Cc2c(O)c3c(c(C(=O)/C=C/c4ccccc4)c2O)OC(C)(C)C=C3)c1O [Rottlerin],inhibition of FGF-2-mediated ERK phosphorylation,[1],inhibited
"FGF-2: fibroblast growth factor-2, purchased from Calbiochem",Bcl-XL and XIAP expression,[2]; HEK293Tet cells stimulated with FGF-2,increased
same,survival,[3],increased survival
TITAT (GRKKRRQRRRPPQ),effect on basal S6K2 activity,[4],no effect
same,inhibition of FGF-2-induced S6K2 activation,[5],but not by αTI-TITAT or TITAT
same,inhibition of ERK phosphorylation in response to FGF-2 (in words),[1]; [8],neither αTI-TITAT nor TITAT inhibited
wt-PKCε-GFP (enzyme),basal S6K2 activity (immune complex kinase assay with S6-peptide),[6],2 fold
αTI-TITAT (SLNPEWNETGRKKRRQRRRPPQ),effect on basal S6K2 activity,[4],no effect
same,inhibition of FGF-2-induced S6K2 activation,[5],but not by αTI-TITAT or TITAT
same,inhibition of ERK phosphorylation in response to FGF-2 (in words),[1]; [8],neither αTI-TITAT nor TITAT inhibited
εTI-TITAT (EAVSLKPTGRKKRRQRRRPPQ),effect on basal S6K2 activity,[4],lowered S6K2 activity in ε-H69 cells to a level comparable to that found in V-H69 cells
same,inhibition of FGF-2-induced S6K2 activation,[5],inhibited
same,inhibition of ERK phosphorylation in response to FGF-2,[1]; [8],60%
same,effect on increased S6 phosphorylation,[7],prevented
